According to patent publication US8993779B2, “Positive allosteric modulators of MGLUR2” (Merck Sharp & Dohme Corp., priority 2010, dated 2015):
Read-outs that look alike come from different tables or passages of the source.

Molecular target: T1, recombinant human mGluR2 (Homo sapiens, UniProt Q14416)
T1 construct: expressed in transfected cells
Assay: FLIPR Ca2+ mobilization assay, potentiation of mGluR2 receptor
Type: cell-based
Conditions: potentiation after EC20 glutamate (900 nM)
Description: Activity in potentiating the mGluR2 receptor may be determined as follows. The compounds of the present invention are tested in a fluorescence laser imaging plate reader (FLIPR) based assay. This assay is a common functional assay to monitor Ca^2+ mobilization in whole cells expressing recombinant receptor coupled with a promiscuous G-protein. CHO dhfr-cells stably expressing recombinant human mGluR2 and Gα16 loaded with Fluo-4 AM (Invitrogen, Carlsbad Calif.) are treated with dose responses of compounds and the Ca^2+ response is monitored on a FLIPR384 (Molecular Devices, Sunnydale Calif.) for agonist activity. The potentiation response is monitored after a subsequent addition of an EC20 concentration of glutamate (900 nM). The maximum calcium response at each concentration of compound for agonist or potentiation are plotted as dose responses and the curves are fitted with a four parameters logistic equation giving EC50 and Hill coefficient using the iterative non linear curve fitting software program.

[1] = CHO dhfr- cells expressing human mGluR2 and Gα16, read-out: FLIPR EC50
[2] = read-out: EC50 potentiating the mGluR2 receptor in the FLIPR assay

T1 sequence (Q14416 19-872): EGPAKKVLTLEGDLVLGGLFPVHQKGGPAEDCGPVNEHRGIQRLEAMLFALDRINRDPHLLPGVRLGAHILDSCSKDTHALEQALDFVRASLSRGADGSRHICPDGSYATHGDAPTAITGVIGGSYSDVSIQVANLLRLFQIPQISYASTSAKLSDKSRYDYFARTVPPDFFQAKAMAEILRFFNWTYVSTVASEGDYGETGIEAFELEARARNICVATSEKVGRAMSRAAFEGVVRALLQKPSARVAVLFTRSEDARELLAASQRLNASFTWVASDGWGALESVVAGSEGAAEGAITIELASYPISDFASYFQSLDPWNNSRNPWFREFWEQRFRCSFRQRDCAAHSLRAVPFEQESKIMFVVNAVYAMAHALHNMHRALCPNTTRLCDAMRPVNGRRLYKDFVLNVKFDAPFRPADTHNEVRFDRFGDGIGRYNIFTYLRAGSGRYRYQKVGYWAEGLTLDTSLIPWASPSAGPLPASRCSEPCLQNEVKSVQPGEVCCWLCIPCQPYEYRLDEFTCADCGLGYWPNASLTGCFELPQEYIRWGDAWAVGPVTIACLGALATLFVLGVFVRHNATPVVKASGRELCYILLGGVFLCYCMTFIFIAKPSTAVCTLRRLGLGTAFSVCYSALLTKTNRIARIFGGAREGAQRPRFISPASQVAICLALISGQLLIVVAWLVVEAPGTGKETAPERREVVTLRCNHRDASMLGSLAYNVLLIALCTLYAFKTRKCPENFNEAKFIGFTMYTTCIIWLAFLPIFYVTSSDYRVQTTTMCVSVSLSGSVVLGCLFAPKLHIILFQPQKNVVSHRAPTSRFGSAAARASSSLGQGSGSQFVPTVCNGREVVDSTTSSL

Structure (SMILES) | EC50 [1] [nM] | EC50 [2] [nM]
N#CCn1c(=O)n(CC2CC2)c2ccc(-c3ccccc3)cc21 [Example 1-9, [3-(cyclopropylmethyl)-2-oxo-6-phenyl-2,3-dihydro-1H-benzimidazol-1-yl]acetonitrile] | 264 | 
COc1ncc(-c2ccc3c(c2)n(C)c(=O)n3CC(C)(C)C)c(OC)n1 [Example 1-61, 5-(2,4-dimethoxypyrimidin-5-yl)-1-(2,2-dimethylpropyl)-3-methyl-1,3-dihydro-2H--benzimidazol-2-one] | 2660 | 
Cc1ccc(-c2ccc3c(c2)n(C)c(=O)n3CC(C)(C)C)c(C#N)c1 [Example 1-94, 2-[1-(2,2-dimethylpropyl)-3-methyl-2-oxo-2,3-dihydro-1H-benzimidazol-5-yl]-5-methylbenzonitrile] | 41 | 
Cn1c(=O)n(CC(C)(C)C)c2ccc(-c3ncccc3C(F)(F)F)cc21 [Example 1-148, 1-(2,2-dimethylpropyl)-3-methyl-5-[3-(trifluoromethyl)pyridin-2-yl]-1,3-dihydro-2H-benzimidazol-2-one] | 126 | 
Cn1c(=O)n(CC(C)(C)C)c2ccc(-c3ccc4c(c3)CN(C(=O)OC(C)(C)C)CC4)cc21 [Example 1-187, tert-butyl 7-[1-(2,2-dimethylpropyl)-3-methyl-2-oxo-2,3-dihydro-1H-benzimidazol-5-yl]-3,4-dihydroisoquinoline-2(1H)-carboxylate] | 182 | 
Cc1ccccc1-c1ccc2c(c1)n(C)c(=O)n2C1CCN(c2ncccn2)CC1 [Example 1-201, 3-methyl-5-(2-methylphenyl)-1-(1-pyrimidin-2-ylpiperidin-4-yl)-1,3-dihydro-2H-benzimidazol-2-one] |  | 12000
Cc1ccccc1-c1ccc2c(c1)n(C)c(=O)n2C1CCNCC1 [Example 1-202, 3-methyl-5-(2-methylphenyl)-1-piperidin-4-yl-1,3-dihydro-2H-benzimidazol-2-one] |  | > 30000
Cn1c(=O)n(C2CCNCC2)c2ccc(-c3ccccc3C(N)=O)cc21 [Example 1-203, 2-(3-methyl-2-oxo-1-piperidin-4-yl-2,3-dihydro-1H-benzimidazol-5-yl)benzamide] |  | > 30000
Cc1ccccc1-c1ccc2c(c1)n(C)c(=O)n2C1CCN(C(=O)OC(C)(C)C)CC1 [Example 1-205, tert-butyl 4-[3-methyl-5-(2-methylphenyl)-2-oxo-2,3-dihydro-1H-benzimidazol-1-yl]piperidine-1-carboxylate] |  | > 30000
Cn1c(=O)n(C2CCN(c3ncccn3)CC2)c2ccc(-c3ccccc3C(N)=O)cc21 [Example 1-206, 2-[3-methyl-2-oxo-1-(1-pyrimidin-2-ylpiperidin-4-yl)-2,3-dihydro-1H-benzimidazol-5-yl]benzamide] |  | 20000
Cn1c(=O)n(CC(C)(C)C)c2ccc(-c3cccc(Oc4cc(C(F)(F)F)ccn4)c3)cc21 [Example 2-4, 1-(2,2-dimethylpropyl)-3-methyl-5-(3-{[4-(trifluoromethyl)pyridin-2-yl]oxy}phenyl)-1,3-dihydro-2H-benzimidazol-2-one] | 496 | 
Cn1c(=O)n(CC(C)(C)C)c2ccc(-c3cc(C#N)cc(Oc4ccnc(C#N)c4)c3)cc21 [Example 2-38, 4-{3-cyano-5-[1-(2,2-dimethylpropyl)-3-methyl-2-oxo-2,3-dihydro-1H-benzimidazol-5-yl]phenoxy}pyridine-2-carbonitrile] | 41 | 
Cn1c(=O)n(CC(C)(C)C)c2ccc(-c3cccc(OCc4ccccc4C(F)(F)F)c3)cc21 [Example 3-3, 1-(2,2-dimethylpropyl)-3-methyl-5-(3-{[2-(trifluoromethyl)benzyl]oxy}phenyl)-1,3-dihydro-2H-benzimidazol-2-one] | 3650 | 
Cn1c(=O)n(CC(C)(C)C)c2ccc(-c3cccc(Oc4ccccc4)c3)cc21 [Example 4-8, 1-(2,2-dimethylpropyl)-3-methyl-5-(3-phenoxyphenyl)-1,3-dihydro-2H-benzimidazol-2-one] | 1250 | 
CN1CCCC(Oc2cccc(-c3ccc4c(c3)n(C)c(=O)n4CC(C)(C)C)n2)C1 (stereo not shown) [Example 5-12, 1-(2,2-dimethylpropyl)-3-methyl-5-{6-[(1-methylpiperidin-3-yl)oxy]pyridin-2-yl}-1,3-dihydro-2H-benzimidazol-2-one] | 3350 | 
Cn1c(=O)n(CC(C)(C)C)c2ccc(-c3cncc(Oc4ccc(C#N)nc4)n3)cc21 [Example 5-22, 5-({6-[1-(2,2-dimethylpropyl)-3-methyl-2-oxo-2,3-dihydro-1H-benzimidazol-5-yl]pyrazin-2-yl}oxy)pyridine-2-carbonitrile] | 364 | 
Cn1c(=O)n(-c2cccc(C(F)(F)F)c2)c2ccc(-c3ccccc3C#N)cc21 [Example 6-9, 2-{3-methyl-2-oxo-1-[3-(trifluoromethyl)phenyl]-2,3-dihydro-1H-benzimidazol-5-yl}benzonitrile] | 45 | 
CN1CCN(c2ccc(-c3ccc4c(c3F)n(C)c(=O)n4CC3(C)CC3)cn2)CC1 [Example 7-19, 4-fluoro-3-methyl-1-[(1-methylcyclopropyl)methyl]-5-[6-(4-methylpiperazin-1-yl)pyridin-3-yl]-1,3-dihydro-2H-benzimidazol-2-one] | 781 | 
Cn1c(=O)n(CC2CC2)c2ccc(-c3ccncc3C(F)(F)F)c(F)c21 [Example 7-47, 1-(cyclopropylmethyl)-4-fluoro-3-methyl-5-[3-(trifluoromethyl)pyridin-4-yl]-1,3-dihydro-2H-benzimidazol-2-one] | 77 | 
Cn1c(=O)n(CC(C)(C)C)c2ccc(-c3cc(Oc4cccc(C#N)n4)ccc3C#N)c(F)c21 [Example 8-5, 6-{4-cyano-3-[1-(2,2-dimethylpropyl)-4-fluoro-3-methyl-2-oxo-2,3-dihydro-1H-benzimidazol-5-yl]phenoxy}pyridine-2-carbonitrile] | 40 | 
Cn1c(=O)n(CC(C)(C)C)c2ccc(-c3cccc(C(O)c4ccccc4)c3)cc21 (stereo not shown) [Example 10-3, 1-(2,2-dimethylpropyl)-5-{3-[hydroxy(phenyl)methyl]phenyl}-3-methyl-1,3-dihydro-2H-benzimidazol-2-one] | 129 | 
Cn1c(=O)n(CC(C)(C)C)c2ccc(-c3cccc(C(C)(O)c4ccccc4)n3)cc21 (stereo not shown) [Example 10-5, 1-(2,2-dimethylpropyl)-5-[6-(1-hydroxy-1-phenylethyl)pyridin-2-yl]-3-methyl-1,3-dihydro-2H-benzimidazol-2-one] | 225 | 
